In series [1] the target is T1, Transcription intermediary factor 1-alpha (Homo sapiens, UniProt O15164).
T1 sequence (O15164 whole entry): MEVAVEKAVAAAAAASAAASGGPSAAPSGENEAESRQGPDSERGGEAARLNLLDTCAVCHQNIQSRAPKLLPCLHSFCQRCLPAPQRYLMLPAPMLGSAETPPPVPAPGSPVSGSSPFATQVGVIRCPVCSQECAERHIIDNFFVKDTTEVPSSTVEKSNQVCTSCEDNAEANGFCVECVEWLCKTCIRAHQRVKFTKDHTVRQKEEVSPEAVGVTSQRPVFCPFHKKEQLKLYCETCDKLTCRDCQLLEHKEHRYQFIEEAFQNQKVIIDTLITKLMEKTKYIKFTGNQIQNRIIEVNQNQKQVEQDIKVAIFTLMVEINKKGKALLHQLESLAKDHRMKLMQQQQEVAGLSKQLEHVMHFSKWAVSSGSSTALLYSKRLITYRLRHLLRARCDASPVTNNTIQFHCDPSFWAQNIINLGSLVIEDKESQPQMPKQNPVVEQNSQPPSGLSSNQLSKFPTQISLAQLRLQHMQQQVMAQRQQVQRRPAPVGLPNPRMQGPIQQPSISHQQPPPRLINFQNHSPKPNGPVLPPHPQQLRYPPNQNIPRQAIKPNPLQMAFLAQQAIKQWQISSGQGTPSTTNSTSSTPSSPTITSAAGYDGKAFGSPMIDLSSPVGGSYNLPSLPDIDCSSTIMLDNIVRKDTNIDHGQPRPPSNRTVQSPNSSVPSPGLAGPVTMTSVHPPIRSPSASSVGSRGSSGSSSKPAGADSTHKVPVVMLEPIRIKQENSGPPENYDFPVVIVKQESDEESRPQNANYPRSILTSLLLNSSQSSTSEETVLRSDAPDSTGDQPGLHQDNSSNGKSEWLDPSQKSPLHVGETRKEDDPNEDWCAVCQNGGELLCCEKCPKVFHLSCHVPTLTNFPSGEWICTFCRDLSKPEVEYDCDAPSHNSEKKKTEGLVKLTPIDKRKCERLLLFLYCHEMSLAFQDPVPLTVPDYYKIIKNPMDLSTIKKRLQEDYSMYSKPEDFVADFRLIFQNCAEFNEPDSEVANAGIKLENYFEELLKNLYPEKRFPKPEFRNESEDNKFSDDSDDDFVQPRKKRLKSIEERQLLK
Briefly: Binding affinity to human partial length TRIM24 (P790 to P977 residues) expressed in bacterial expression system by BROMOscan assay.

Series [2] addresses Bromodomain-containing protein 2 (Homo sapiens, UniProt P25440). In words: Binding affinity to human partial length BRD2 bromodomain 1 long isoform (K71 to N194 residues) expressed in bacterial expression system by BROMOscan assay.
Series [3] is described as follows: Intrinsic clearance in mouse hepatocytes at 0.5 uM by LC-MS/MS analysis. Type of series: ADME, cell-based, Hepatocyte.

Sequence of Bromodomain-containing protein 2 (P25440 whole entry, the tested form may be a part, canonical isoform): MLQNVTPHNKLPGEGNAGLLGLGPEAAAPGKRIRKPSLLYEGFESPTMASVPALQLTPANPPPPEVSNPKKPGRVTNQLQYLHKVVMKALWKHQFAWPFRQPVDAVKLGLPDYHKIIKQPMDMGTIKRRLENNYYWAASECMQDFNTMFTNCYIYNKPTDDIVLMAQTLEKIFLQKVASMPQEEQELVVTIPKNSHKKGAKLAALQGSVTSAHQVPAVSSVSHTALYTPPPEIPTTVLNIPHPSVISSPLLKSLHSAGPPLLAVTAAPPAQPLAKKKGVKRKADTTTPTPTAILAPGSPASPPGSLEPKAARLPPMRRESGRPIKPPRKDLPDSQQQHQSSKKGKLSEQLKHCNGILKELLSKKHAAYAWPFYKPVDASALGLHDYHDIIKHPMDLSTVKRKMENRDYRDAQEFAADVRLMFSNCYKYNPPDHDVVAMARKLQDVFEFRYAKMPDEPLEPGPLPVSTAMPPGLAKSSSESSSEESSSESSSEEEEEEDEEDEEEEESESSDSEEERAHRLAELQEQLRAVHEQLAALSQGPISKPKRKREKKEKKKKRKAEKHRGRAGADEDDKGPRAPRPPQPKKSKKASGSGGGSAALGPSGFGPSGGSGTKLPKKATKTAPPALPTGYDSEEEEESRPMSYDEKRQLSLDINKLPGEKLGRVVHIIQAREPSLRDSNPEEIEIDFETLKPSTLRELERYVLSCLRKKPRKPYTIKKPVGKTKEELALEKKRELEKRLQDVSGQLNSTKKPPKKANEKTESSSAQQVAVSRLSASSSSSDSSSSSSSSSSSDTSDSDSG

As for `Cc1cc2c(-c3ccco3)cnc(N[C@@H]3CCN(C)C[C@H]3C(=O)NC3CCCCC3)c2[nH]c1=O` [GSK789], the Kd was 20 µM in series [1] and 0.02 µM in series [2]. Also, the CLH in series [3] was found to be 8.15 mL/min/g.

The term Kd denotes the concentration at which binding is half-saturated. A high value points to a looser complex.

(Values after ChEMBL document CHEMBL4725292 (J Med Chem, 2020).)
